Assays:
MDA-MB-231 [1] = experiment: MTT cytotoxicity assay, MDA-MB-231; assay type: cell-based, human; settings: for IC50: Homo sapiens
Protocol: (§1) The 96-well plate was incubated for 24 h before the MTT assay. […] Cells were cultured using DMEM supplemented with 10% foetal bovine serum, 10 µg/mL insulin and 1% penicillin–streptomycin. Reconstituted MTT (10%) was added and incubated for 2 h. Formazan crystals were dissolved by the MTT solubilizing solution after incubation. Absorbance was measured at a wavelength of 570 nm[28].

MCF-7 [2] = experiment: MTT cytotoxicity assay, MCF-7; assay type: cell-based, human; settings: for IC50: Homo sapiens
Protocol: as §1

HCT-116 [3] = experiment: MTT cytotoxicity assay, HCT-116; assay type: cell-based, human; settings: for IC50: Homo sapiens
Protocol: as §1

HepG-2 [4] = experiment: MTT cytotoxicity assay, HepG-2; assay type: cell-based, human; settings: Homo sapiens
Protocol: as §1

EGFR = target: T1, EGFR (Homo sapiens, UniProt P00533); experiment: EGFR kinase assay; assay type: biochemical; settings: EGFR-TK inhibitory assay; means ± SE, three repeats
T1 construct: purchased Invitrogen
T1 sequence (P00533 25-1210): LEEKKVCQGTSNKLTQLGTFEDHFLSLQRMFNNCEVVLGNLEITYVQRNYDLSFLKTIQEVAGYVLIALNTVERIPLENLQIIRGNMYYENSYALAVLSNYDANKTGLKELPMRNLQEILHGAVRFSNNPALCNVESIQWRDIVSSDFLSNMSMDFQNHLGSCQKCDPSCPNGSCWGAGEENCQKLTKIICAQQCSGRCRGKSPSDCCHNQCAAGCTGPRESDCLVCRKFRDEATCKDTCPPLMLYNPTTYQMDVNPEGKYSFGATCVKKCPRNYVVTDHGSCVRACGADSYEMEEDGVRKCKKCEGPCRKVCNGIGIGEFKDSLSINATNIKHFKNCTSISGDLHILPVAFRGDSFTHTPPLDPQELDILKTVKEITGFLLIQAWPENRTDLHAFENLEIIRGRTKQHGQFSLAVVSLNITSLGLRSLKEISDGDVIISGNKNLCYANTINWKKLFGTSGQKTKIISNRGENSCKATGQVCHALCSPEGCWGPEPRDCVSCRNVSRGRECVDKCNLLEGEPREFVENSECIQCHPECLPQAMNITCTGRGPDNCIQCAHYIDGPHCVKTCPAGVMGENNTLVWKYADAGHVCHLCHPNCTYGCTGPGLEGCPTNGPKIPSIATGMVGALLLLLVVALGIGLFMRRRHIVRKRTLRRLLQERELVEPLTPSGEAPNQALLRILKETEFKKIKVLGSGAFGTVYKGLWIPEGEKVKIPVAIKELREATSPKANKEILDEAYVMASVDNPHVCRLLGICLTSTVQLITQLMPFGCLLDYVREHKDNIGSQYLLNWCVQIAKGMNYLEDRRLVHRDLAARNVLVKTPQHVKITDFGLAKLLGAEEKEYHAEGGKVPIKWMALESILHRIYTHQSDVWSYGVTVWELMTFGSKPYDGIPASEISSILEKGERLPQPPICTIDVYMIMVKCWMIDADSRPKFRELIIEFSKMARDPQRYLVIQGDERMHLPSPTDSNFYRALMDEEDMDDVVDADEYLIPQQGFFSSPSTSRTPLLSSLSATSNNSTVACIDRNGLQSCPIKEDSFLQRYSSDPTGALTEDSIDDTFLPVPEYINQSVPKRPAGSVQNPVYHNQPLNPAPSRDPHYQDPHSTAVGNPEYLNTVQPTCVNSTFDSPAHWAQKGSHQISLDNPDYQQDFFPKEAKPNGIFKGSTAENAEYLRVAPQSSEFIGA
Protocol: An ATP solution and a kinase/peptide mixture were developed just before use. […] Then, […] of the prepared solution was added to each well. The plate was incubated for 1 h and determined by an ELISA Reader (PerkinElmer, USA). Curve fitting using Graph Pad Prism 5 was constructed. Each experiment was repeated three times. IC50 was represented as means ± SE.

[5] = test system: MCF-10A normal breast cell line; experiment: MTT cytotoxicity assay, MCF-10A normal cells; assay type: cell-based; settings: Homo sapiens
Protocol: as §1

MDA-MB-231 [6] = experiment: Radiosensitizing evaluation, MDA-MB-231; assay type: cell-based; settings: Homo sapiens, MDA-MB-231, light or radiation study, 48 h; single dose of 8 Gy gamma radiation; measured two days after irradiation
Protocol: (§2) Irradiation was performed at the National Centre for Radiation Research and Technology (NCRRT), Egyptian Atomic Energy Authority, using Gamma cell-40 (^137Cs) source. The promising compounds 5 and 6 were selected to be re-evaluated for in vitro cytotoxic activity after the cells containing the compounds were gamma-irradiated at a dose level of 8 Gy with a dose rate of 0.758 rad/s for 17.59 min. Cytotoxicity was measured two days after irradiation. The IC50 of the tested compounds is calculated using GraphPad Prism 5.

MCF-7 [7] = experiment: Radiosensitizing evaluation, MCF-7; assay type: cell-based; settings: Homo sapiens, MCF7, light or radiation study, 48 h; single dose of 8 Gy gamma radiation; measured two days after irradiation
Protocol: as §2

HCT-116 [8] = experiment: Radiosensitizing evaluation, HCT-116; assay type: cell-based; settings: Homo sapiens, HCT-116, light or radiation study, 48 h; single dose of 8 Gy gamma radiation; measured two days after irradiation
Protocol: as §2

HepG-2 [9] = experiment: Radiosensitizing evaluation, HepG-2; assay type: cell-based; settings: Homo sapiens, HepG2, light or radiation study, 48 h; single dose of 8 Gy gamma radiation; measured two days after irradiation
Protocol: as §2

[10] = MDA-MB-231, MTT assay, mean of three experiments ± SE, read-out: IC50 MDA-MB-231
[11] = relative to MCF-10A normal cells
[12] = MCF7, MTT assay, mean of three experiments ± SE, read-out: IC50 MCF-7
[13] = HCT-116, MTT assay, mean of three experiments ± SE, read-out: IC50 HCT-116
[14] = HepG2, MTT assay, mean of three experiments ± SE, read-out: IC50 HepG-2

## Nn1c(=S)[nH]c2ccccc2c1=O [Compound 6, 3-Amino-2-thioxo-2,3-dihydroquinazolin-4(1H)-one]
MDA-MB-231 [1]; [10]
  IC50: 1.6 ± 0.01 µM
MDA-MB-231 [1]; [11]
  Selectivity index (SI) MDA-MB-231: 30.75
MCF-7 [2]; [12]
  IC50: 7.23 ± 0.07 µM
MCF-7 [2]; [11]
  Selectivity index (SI) MCF-7: 6.81
HCT-116 [3]; [13]
  IC50: 10.6 ± 0.19 µM
HCT-116 [3]; [11]
  Selectivity index (SI) HCT-116: 4.64
HepG-2 [4]; [14]
  IC50: 17.6 ± 0.15 µM
EGFR
  IC50: 2.13 ± 0.21 µM
[5]
  IC50: 49.2 ± 1.52 µM
MDA-MB-231 [6]
  IC50: 1.04 ± 0.04 µM
MCF-7 [7]
  IC50: 4.26 ± 0.01 µM
HCT-116 [8]
  IC50: 6.98 ± 0.25 µM
HepG-2 [9]
  IC50: 14.26 ± 0.11 µM
other
  melting point: 261.2 °C

## CC(Nc1nc2ccccc2c(=O)n1N)C(O)c1ccccc1 (centres unmarked) [Compound 11, 3-amino-2-(1-hydroxy-1-phenylpropan-2-ylamino)quinazolin-4(3H)-one]
MDA-MB-231 [1]; [10]
  IC50: 16.39 ± 0.06 µM
MCF-7 [2]; [12]
  IC50: 39.42 ± 0.3 µM
HCT-116 [3]; [13]
  IC50: 44.15 ± 0.22 µM
HepG-2 [4]; [14]
  IC50: 33.65 ± 0.26 µM
EGFR
  IC50: 3.87 ± 0.11 µM
other
  melting point: 147.5 °C

## CC1Nn2c(nc3ccccc3c2=O)OC1c1ccccc1 (centres unmarked) [Compound 9, 3-Methyl-2-phenyl-3,4-dihydro-[1,3,4]oxadiazino[2,3-b]quinazolin-6(2H)-one]
MDA-MB-231 [1]; [10]
  IC50: 84.15 ± 0.62 µM
MCF-7 [2]; [12]
  IC50: > 100 µM
HCT-116 [3]; [13]
  IC50: 90.54 ± 0.73 µM
HepG-2 [4]; [14]
  IC50: > 100 µM
EGFR
  IC50: 9.78 ± 0.31 µM

## C#Cc1cccc(Nc2ncnc3cc(OCCOC)c(OCCOC)cc23)c1 [Erlotinib, reference compound]
MDA-MB-231 [1]; MDA-MB-231, read-out: IC50 MDA-MB-231
  IC50: 3.73 ± 0.01 µM
MCF-7 [2]; MCF7, read-out: IC50 MCF-7
  IC50: 4.48 ± 0.02 µM
HCT-116 [3]; HCT-116, read-out: IC50 HCT-116
  IC50: 2.78 ± 0.04 µM
HepG-2 [4]; HepG2, read-out: IC50 HepG-2
  IC50: 3.04 ± 0.2 µM

## O=c1c2ccccc2nc2[nH]n3c(=O)c4ccccc4nc3[nH]n12 [Compound 14, [1,2,4,5]tetrazino[3,2-b:6,5-b']diquinazoline-8,16(6H,14H)-dione]
MDA-MB-231 [1]; [10]
  IC50: 26.55 ± 0.04 µM
MCF-7 [2]; [12]
  IC50: 30.12 ± 0.19 µM
HCT-116 [3]; [13]
  IC50: 29.32 ± 0.16 µM
HepG-2 [4]; [14]
  IC50: 41.25 ± 0.23 µM
EGFR
  IC50: 1.39 ± 0.27 µM
other
  melting point: 294.1 °C

## CC1C(c2ccccc2)Sc2nc3ccccc3c(=O)n21 (centres unmarked) [Compound 8, 3-Methyl-2-phenyl-2H-thiazolo[2,3-b]quinazolin-5(3H)-one]
MDA-MB-231 [1]; [10]
  IC50: 38.19 ± 0.38 µM
MCF-7 [2]; [12]
  IC50: 70.1 ± 0.87 µM
HCT-116 [3]; [13]
  IC50: 49.22 ± 0.49 µM
HepG-2 [4]; [14]
  IC50: 47.32 ± 0.47 µM
EGFR
  IC50: 3.74 ± 0.17 µM

## CC1C(c2ccccc2)Oc2nc3ccccc3c(=O)n21 (centres unmarked) [Compound 15, 3-Methyl-2-phenyl-2H-oxazolo[2,3-b]quinazolin-5(3H)-one]
MDA-MB-231 [1]; [10]
  IC50: 2.41 ± 0.03 µM
MCF-7 [2]; [12]
  IC50: 19.67 ± 0.13 µM
HCT-116 [3]; [13]
  IC50: 26.51 ± 0.17 µM
HepG-2 [4]; [14]
  IC50: 28.5 ± 0.4 µM
EGFR
  IC50: 1.09 ± 0.12 µM

## CC(C(O)c1ccccc1)n1c(=S)[nH]c2ccccc2c1=O (centres unmarked) [Compound 4, 3-(1-hydroxy-1-phenylpropan-2-yl)-2-thioxo-2,3-dihydroquinazolin-4(1H)-one]
MDA-MB-231 [1]; [10]
  IC50: 35.24 ± 0.24 µM
MCF-7 [2]; [12]
  IC50: 25.55 ± 0.02 µM
HCT-116 [3]; [13]
  IC50: 23.49 ± 0.05 µM
HepG-2 [4]; [14]
  IC50: 22.7 ± 0.61 µM
EGFR
  IC50: 1.39 ± 0.14 µM
